Results taken from ChEMBL document CHEMBL3885881, “DrugMatrix”.

Species on record: Rattus norvegicus
Assay: DrugMatrix - Regimen: Daily Repeat
Format: toxicity, organism-based, Sprague-Dawley
Set-up: regimen Daily Repeat, gender Male, age 6-8 weeks
Settings: in vivo, po, route oral GAVAGE, vehicle .5 % CMC; for ABSOLUTE BASOPHIL / BASOPHIL / EOSINOPHIL / ERYTHROCYTE COUNT / HEMATOCRIT / HEMOGLOBIN / LEUKOCYTE COUNT / LYMPHOCYTE / MEAN CORPUSCULAR HEMOGLOBIN / MEAN CORPUSCULAR HEMOGLOBIN CONCENTRATION / MEAN CORPUSCULAR VOLUME / MONOCYTE / NEUTROPHIL / PLATELET COUNT: tissue Blood; for ALANINE AMINOTRANSFERASE / ALKALINE PHOSPHATASE / ASPARTATE AMINOTRANSFERASE / BLOOD UREA NITROGEN / CHLORIDE / CHOLESTEROL / CREATINE PHOSPHOKINASE / CREATININE / GLUCOSE / PHOSPHORUS / POTASSIUM / SODIUM / TOTAL BILIRUBIN / TOTAL PROTEIN: tissue Plasma
[1] = 0 mg/kg, 72 h, dose level Control, time 3 day
[2] = 0 mg/kg, 120 h, dose level Control, time 5 day
[3] = 32 mg/kg, 72 h, dose level Low, time 3 day
[4] = 32 mg/kg, 120 h, dose level Low, time 5 day
[5] = 320 mg/kg, 72 h, dose level High, time 3 day
[6] = 320 mg/kg, 120 h, dose level High, time 5 day

Structure (SMILES): C1CCC(C(CC2CCCCN2)C2CCCCC2)CC1 (stereo not drawn) [PERHEXILINE]
- ABSOLUTE BASOPHIL [1]: 16.7 cells/µL
- BASOPHIL [1]: 0.17%
- EOSINOPHIL [1]: 0.62%
- ERYTHROCYTE COUNT [1]: 6.55 x10E6/uL
- HEMATOCRIT [1]: 42%
- HEMOGLOBIN [1]: 13.48 G/DL
- LEUKOCYTE COUNT [1]: 8.79 x10E3/uL
- LYMPHOCYTE [1]: 76.98%
- MEAN CORPUSCULAR HEMOGLOBIN [1]: 20.57 pg
- MEAN CORPUSCULAR HEMOGLOBIN CONCENTRATION [1]: 32.08 G/DL
- MEAN CORPUSCULAR VOLUME [1]: 64.1 fL
- MONOCYTE [1]: 2.12%
- NEUTROPHIL [1]: 19%
- PLATELET COUNT [1]: 1432.17 x10E3/uL
- ALANINE AMINOTRANSFERASE [1]: 42.83 u/L
- ALKALINE PHOSPHATASE [1]: 328.5 u/L
- ASPARTATE AMINOTRANSFERASE [1]: 78.33 u/L
- BLOOD UREA NITROGEN [1]: 14.5 mg/dL
- CHLORIDE [1]: 104.5 MEQ/L
- CHOLESTEROL [1]: 78.67 mg/dL
- CREATINE PHOSPHOKINASE [1]: 282.33 u/L
- CREATININE [1]: 0.25 mg/dL
- GLUCOSE [1]: 173.67 mg/dL
- PHOSPHORUS [1]: 12.83 mg/dL
- POTASSIUM [1]: 6.7 MEQ/L
- SODIUM [1]: 145.83 MEQ/L
- TOTAL BILIRUBIN [1]: 0.4 mg/dL
- TOTAL PROTEIN [1]: 5.93 G/DL
- ABSOLUTE BASOPHIL [2]: 28 cells/µL
- BASOPHIL [2]: 0.26%
- EOSINOPHIL [2]: 0.44%
- ERYTHROCYTE COUNT [2]: 6.99 x10E6/uL
- HEMATOCRIT [2]: 45.12%
- HEMOGLOBIN [2]: 14.26 G/DL
- LEUKOCYTE COUNT [2]: 9.42 x10E3/uL
- LYMPHOCYTE [2]: 79.92%
- MEAN CORPUSCULAR HEMOGLOBIN [2]: 20.44 pg
- MEAN CORPUSCULAR HEMOGLOBIN CONCENTRATION [2]: 31.62 G/DL
- MEAN CORPUSCULAR VOLUME [2]: 64.6 fL
- MONOCYTE [2]: 2.2%
- NEUTROPHIL [2]: 16.14%
- PLATELET COUNT [2]: 1062.2 x10E3/uL
- ALANINE AMINOTRANSFERASE [2]: 44 u/L
- ALKALINE PHOSPHATASE [2]: 342.6 u/L
- ASPARTATE AMINOTRANSFERASE [2]: 74.17 u/L
- BLOOD UREA NITROGEN [2]: 13 mg/dL
- CHLORIDE [2]: 103 MEQ/L
- CHOLESTEROL [2]: 72.83 mg/dL
- CREATINE PHOSPHOKINASE [2]: 184.67 u/L
- CREATININE [2]: 0.47 mg/dL
- GLUCOSE [2]: 168.17 mg/dL
- PHOSPHORUS [2]: 12.27 mg/dL
- POTASSIUM [2]: 6.98 MEQ/L
- SODIUM [2]: 147 MEQ/L
- TOTAL BILIRUBIN [2]: 0.65 mg/dL
- TOTAL PROTEIN [2]: 6.23 G/DL
- ABSOLUTE BASOPHIL [3]: 20 cells/µL
- BASOPHIL [3]: 0.17%
- EOSINOPHIL [3]: 0.47%
- ERYTHROCYTE COUNT [3]: 6.84 x10E6/uL
- HEMATOCRIT [3]: 42.07%
- HEMOGLOBIN [3]: 13.8 G/DL
- LEUKOCYTE COUNT [3]: 11 x10E3/uL
- LYMPHOCYTE [3]: 83.1%
- MEAN CORPUSCULAR HEMOGLOBIN [3]: 20.2 pg
- MEAN CORPUSCULAR HEMOGLOBIN CONCENTRATION [3]: 32.8 G/DL
- MEAN CORPUSCULAR VOLUME [3]: 61.57 fL
- MONOCYTE [3]: 1.9%
- NEUTROPHIL [3]: 12.83%
- PLATELET COUNT [3]: 1282.33 x10E3/uL
- ALANINE AMINOTRANSFERASE [3]: 33.33 u/L
- ALKALINE PHOSPHATASE [3]: 346 u/L
- ASPARTATE AMINOTRANSFERASE [3]: 61 u/L
- BLOOD UREA NITROGEN [3]: 11.67 mg/dL
- CHLORIDE [3]: 104.33 MEQ/L
- CHOLESTEROL [3]: 65.33 mg/dL
- CREATINE PHOSPHOKINASE [3]: 229 u/L
- CREATININE [3]: 0.37 mg/dL
- GLUCOSE [3]: 183.67 mg/dL
- PHOSPHORUS [3]: 13.7 mg/dL
- POTASSIUM [3]: 6.87 MEQ/L
- SODIUM [3]: 145.33 MEQ/L
- TOTAL BILIRUBIN [3]: 0.3 mg/dL
- TOTAL PROTEIN [3]: 5.73 G/DL
- ABSOLUTE BASOPHIL [4]: 150 cells/µL
- BASOPHIL [4]: 1.2%
- EOSINOPHIL [4]: 0.5%
- ERYTHROCYTE COUNT [4]: 7.42 x10E6/uL
- HEMATOCRIT [4]: 47.53%
- HEMOGLOBIN [4]: 15.03 G/DL
- LEUKOCYTE COUNT [4]: 12.21 x10E3/uL
- LYMPHOCYTE [4]: 82.57%
- MEAN CORPUSCULAR HEMOGLOBIN [4]: 20.33 pg
- MEAN CORPUSCULAR HEMOGLOBIN CONCENTRATION [4]: 31.7 G/DL
- MEAN CORPUSCULAR VOLUME [4]: 64.2 fL
- MONOCYTE [4]: 2.13%
- NEUTROPHIL [4]: 12.7%
- PLATELET COUNT [4]: 1404 x10E3/uL
- ALANINE AMINOTRANSFERASE [4]: 34.33 u/L
- ALKALINE PHOSPHATASE [4]: 375.33 u/L
- ASPARTATE AMINOTRANSFERASE [4]: 68.33 u/L
- BLOOD UREA NITROGEN [4]: 11.33 mg/dL
- CHLORIDE [4]: 102 MEQ/L
- CHOLESTEROL [4]: 67 mg/dL
- CREATINE PHOSPHOKINASE [4]: 206.67 u/L
- CREATININE [4]: 0.3 mg/dL
- GLUCOSE [4]: 187 mg/dL
- PHOSPHORUS [4]: 12.13 mg/dL
- POTASSIUM [4]: 6.8 MEQ/L
- SODIUM [4]: 149.67 MEQ/L
- TOTAL BILIRUBIN [4]: 0.3 mg/dL
- TOTAL PROTEIN [4]: 6.4 G/DL
- ABSOLUTE BASOPHIL [5]: 33.3 cells/µL
- BASOPHIL [5]: 0.33%
- EOSINOPHIL [5]: 0.4%
- ERYTHROCYTE COUNT [5]: 7.33 x10E6/uL
- HEMATOCRIT [5]: 45.27%
- HEMOGLOBIN [5]: 14.7 G/DL
- LEUKOCYTE COUNT [5]: 9.79 x10E3/uL
- LYMPHOCYTE [5]: 79.33%
- MEAN CORPUSCULAR HEMOGLOBIN [5]: 20.1 pg
- MEAN CORPUSCULAR HEMOGLOBIN CONCENTRATION [5]: 32.53 G/DL
- MEAN CORPUSCULAR VOLUME [5]: 61.77 fL
- MONOCYTE [5]: 1.37%
- NEUTROPHIL [5]: 17.17%
- PLATELET COUNT [5]: 1599 x10E3/uL
- ALANINE AMINOTRANSFERASE [5]: 47 u/L
- ALKALINE PHOSPHATASE [5]: 318.5 u/L
- ASPARTATE AMINOTRANSFERASE [5]: 61.67 u/L
- BLOOD UREA NITROGEN [5]: 9.67 mg/dL
- CHLORIDE [5]: 102.33 MEQ/L
- CHOLESTEROL [5]: 74 mg/dL
- CREATINE PHOSPHOKINASE [5]: 199.67 u/L
- CREATININE [5]: 0.33 mg/dL
- GLUCOSE [5]: 167 mg/dL
- PHOSPHORUS [5]: 14.17 mg/dL
- POTASSIUM [5]: 6.63 MEQ/L
- SODIUM [5]: 146.33 MEQ/L
- TOTAL BILIRUBIN [5]: 0.33 mg/dL
- TOTAL PROTEIN [5]: 6 G/DL
- ABSOLUTE BASOPHIL [6]: 50 cells/µL
- BASOPHIL [6]: 0.5%
- EOSINOPHIL [6]: 0.34%
- ERYTHROCYTE COUNT [6]: 7.26 x10E6/uL
- HEMATOCRIT [6]: 45.84%
- HEMOGLOBIN [6]: 14.82 G/DL
- LEUKOCYTE COUNT [6]: 10.17 x10E3/uL
- LYMPHOCYTE [6]: 80.92%
- MEAN CORPUSCULAR HEMOGLOBIN [6]: 20.46 pg
- MEAN CORPUSCULAR HEMOGLOBIN CONCENTRATION [6]: 32.36 G/DL
- MEAN CORPUSCULAR VOLUME [6]: 63.26 fL
- MONOCYTE [6]: 1.18%
- NEUTROPHIL [6]: 16.4%
- PLATELET COUNT [6]: 1254 x10E3/uL
- ALANINE AMINOTRANSFERASE [6]: 48.8 u/L
- ALKALINE PHOSPHATASE [6]: 300.75 u/L
- ASPARTATE AMINOTRANSFERASE [6]: 75.6 u/L
- BLOOD UREA NITROGEN [6]: 12.2 mg/dL
- CHLORIDE [6]: 102.2 MEQ/L
- CHOLESTEROL [6]: 68.6 mg/dL
- CREATINE PHOSPHOKINASE [6]: 173.4 u/L
- CREATININE [6]: 0.36 mg/dL
- GLUCOSE [6]: 186.4 mg/dL
- PHOSPHORUS [6]: 13.36 mg/dL
- POTASSIUM [6]: 6.38 MEQ/L
- SODIUM [6]: 146.8 MEQ/L
- TOTAL BILIRUBIN [6]: 0.28 mg/dL
- TOTAL PROTEIN [6]: 5.88 G/DL
